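A five-concentration, 48-hour dose response in 96-well plates underlies each endpoint, interpolated linearly between surrounding concentrations. At the GI50, growth is halved. Definition used: TGI = concentration required for complete inhibition of growth.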
Key:
Test in all cases: growth of human tumour cells (NCI), 48 h
[1] = tested on: 786-0 renal
[2] = tested on: A498 renal
[3] = tested on: A549 NSCLC
[4] = tested on: ACHN renal
[5] = tested on: BT-549 breast
[6] = tested on: CAKI-1 renal
[7] = tested on: CCRF-CEM leukemia
[8] = tested on: COLO 205 colon
[9] = tested on: DU-145 prostate
[10] = tested on: EKVX NSCLC
[11] = tested on: HCC-2998 colon
[12] = tested on: HCT-116 colon
[13] = tested on: HCT-15 colon
[14] = tested on: HL-60(TB) leukemia
[15] = tested on: HOP-62 NSCLC
[16] = tested on: HOP-92 NSCLC
[17] = tested on: HS 578T breast
[18] = tested on: HT29 colon
[19] = tested on: IGROV1 ovarian
[20] = tested on: K-562 leukemia
[21] = tested on: KM12 colon
[22] = tested on: LOX IMVI melanoma
[23] = tested on: M14 melanoma
[24] = tested on: MALME-3M melanoma
[25] = tested on: MCF7 breast
[26] = tested on: MDA-MB-231 breast
[27] = tested on: MDA-MB-435
[28] = tested on: MOLT-4 leukemia
[29] = tested on: NCI-H226 lung
[30] = tested on: NCI-H23 lung
[31] = tested on: NCI-H460 lung
[32] = tested on: NCI-H522 lung
[33] = tested on: NCI/ADR-RES ovarian
[34] = tested on: OVCAR-3 ovarian
[35] = tested on: OVCAR-4 ovarian
[36] = tested on: OVCAR-5 ovarian
[37] = tested on: OVCAR-8 ovarian
[38] = tested on: PC-3 prostate
[39] = tested on: RXF 393 renal
[40] = tested on: SF-268 CNS
[41] = tested on: SF-295 CNS
[42] = tested on: SF-539 CNS
[43] = tested on: SK-MEL-2 melanoma
[44] = tested on: SK-MEL-28 melanoma
[45] = tested on: SK-MEL-5 melanoma
[46] = tested on: SK-OV-3 ovarian
[47] = tested on: SN12C renal
[48] = tested on: SNB-19 CNS
[49] = tested on: SNB-75 CNS
[50] = tested on: SR leukemia
[51] = tested on: SW-620 colon
[52] = tested on: T-47D breast
[53] = tested on: TK-10 renal
[54] = tested on: UACC-257 melanoma
[55] = tested on: UACC-62 melanoma
[56] = tested on: UO-31 renal

SMILES: O=C1c2ccccc2-c2cn(Cc3ccccc3)c3cccc(c23)C1c1cccnc1 (configuration not stated)
- GI50 [1]: 5.78 µM
- TGI [1]: > 50 µM
- GI50 [2]: 1.34 µM
- TGI [2]: 29.9 µM
- GI50 [3]: 3.2 µM
- TGI [3]: > 50 µM
- GI50 [4]: 12.1 µM
- TGI [4]: > 50 µM
- GI50 [5]: 6.62 µM
- TGI [5]: > 50 µM
- GI50 [6]: 2.74 µM
- TGI [6]: > 50 µM
- GI50 [7]: 2.62 µM
- TGI [7]: > 50 µM
- GI50 [8]: 2.26 µM
- TGI [8]: 9.44 µM
- GI50 [9]: 4.27 µM
- TGI [9]: 40.5 µM
- GI50 [10]: 9.61 µM
- TGI [10]: > 50 µM
- GI50 [11]: 11.4 µM
- TGI [11]: > 50 µM
- GI50 [12]: 1.99 µM
- TGI [12]: > 50 µM
- GI50 [13]: 2.54 µM
- TGI [13]: > 50 µM
- GI50 [14]: 2.4 µM
- TGI [14]: 19.5 µM
- GI50 [15]: 3.44 µM
- TGI [15]: > 50 µM
- GI50 [16]: 2.74 µM
- TGI [16]: > 50 µM
- GI50 [17]: 2.92 µM
- TGI [17]: 45 µM
- GI50 [18]: 1.86 µM
- TGI [18]: > 50 µM
- GI50 [19]: 3.41 µM
- TGI [19]: > 50 µM
- GI50 [20]: 2.09 µM
- TGI [20]: > 50 µM
- GI50 [21]: 2.27 µM
- TGI [21]: > 50 µM
- GI50 [22]: 2.76 µM
- TGI [22]: > 50 µM
- GI50 [23]: 3.89 µM
- TGI [23]: > 50 µM
- GI50 [24]: 10.2 µM
- TGI [24]: > 50 µM
- GI50 [25]: 1.64 µM
- TGI [25]: > 50 µM
- GI50 [26]: 4.18 µM
- TGI [26]: > 50 µM
- GI50 [27]: 1.32 µM
- TGI [27]: 6.13 µM
- GI50 [28]: 3.2 µM
- TGI [28]: > 50 µM
- GI50 [29]: > 50 µM
- TGI [29]: > 50 µM
- GI50 [30]: 1.74 µM
- TGI [30]: > 50 µM
- GI50 [31]: 1.9 µM
- TGI [31]: > 50 µM
- GI50 [32]: 2.28 µM
- TGI [32]: 33.4 µM
- GI50 [33]: 1.97 µM
- TGI [33]: > 50 µM
- GI50 [34]: 1.8 µM
- TGI [34]: 4.95 µM
- GI50 [35]: 6.15 µM
- TGI [35]: > 50 µM
- GI50 [36]: > 50 µM
- TGI [36]: > 50 µM
- GI50 [37]: 9.3 µM
- TGI [37]: > 50 µM
- GI50 [38]: 5.94 µM
- TGI [38]: > 50 µM
- GI50 [39]: 8.1 µM
- TGI [39]: > 50 µM
- GI50 [40]: 18.5 µM
- TGI [40]: > 50 µM
- GI50 [41]: 2.02 µM
- TGI [41]: > 50 µM
- GI50 [42]: 5.67 µM
- TGI [42]: > 50 µM
- GI50 [43]: 3.9 µM
- TGI [43]: > 50 µM
- GI50 [44]: 4.12 µM
- TGI [44]: > 50 µM
- GI50 [45]: 2.42 µM
- TGI [45]: 17.9 µM
- GI50 [46]: 5.38 µM
- TGI [46]: > 50 µM
- GI50 [47]: 3.08 µM
- TGI [47]: > 50 µM
- GI50 [48]: 14.3 µM
- TGI [48]: > 50 µM
- GI50 [49]: 1.38 µM
- TGI [49]: 26 µM
- GI50 [50]: 1.78 µM
- TGI [50]: > 50 µM
- GI50 [51]: 1.88 µM
- TGI [51]: > 50 µM
- GI50 [52]: 2.32 µM
- TGI [52]: > 50 µM
- GI50 [53]: 20.8 µM
- TGI [53]: > 50 µM
- GI50 [54]: 11.2 µM
- TGI [54]: > 50 µM
- GI50 [55]: 2.73 µM
- TGI [55]: > 50 µM
- GI50 [56]: 5.2 µM
- TGI [56]: > 50 µM

Source: PubChem BioAssay (NCI)
